Measured values as given in PubChem BioAssay (NCI).
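Where inhibition never reached the appropriate level, the endpoint shown equals the highest concentration tested. Otherwise, values were interpolated linearly from a five-concentration, 48-hour dose response in 96-well plates. GI50 is the concentration that inhibits growth by half. Definition used: TGI = concentration required for complete inhibition of growth.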

Columns and labels:
Assay in all cases: NCI tumour cell line growth inhibition, 48 h
[1] = tested on: 786-0 renal
[2] = tested on: A498 renal
[3] = tested on: A549 NSCLC
[4] = tested on: ACHN renal
[5] = tested on: BT-549 breast
[6] = tested on: CAKI-1 renal
[7] = tested on: CCRF-CEM leukemia
[8] = tested on: COLO 205 colon
[9] = tested on: DU-145 prostate
[10] = tested on: EKVX NSCLC
[11] = tested on: HCC-2998 colon
[12] = tested on: HCT-116 colon
[13] = tested on: HCT-15 colon
[14] = tested on: HL-60(TB) leukemia
[15] = tested on: HOP-62 NSCLC
[16] = tested on: HOP-92 NSCLC
[17] = tested on: HS 578T breast
[18] = tested on: HT29 colon
[19] = tested on: IGROV1 ovarian
[20] = tested on: K-562 leukemia
[21] = tested on: KM12 colon
[22] = tested on: LOX IMVI melanoma
[23] = tested on: M14 melanoma
[24] = tested on: MALME-3M melanoma
[25] = tested on: MCF7 breast
[26] = tested on: MDA-MB-231 breast
[27] = tested on: MDA-MB-435
[28] = tested on: MDA-MB-468 breast
[29] = tested on: MOLT-4 leukemia
[30] = tested on: NCI-H226 lung
[31] = tested on: NCI-H23 lung
[32] = tested on: NCI-H460 lung
[33] = tested on: NCI-H522 lung
[34] = tested on: NCI/ADR-RES ovarian
[35] = tested on: OVCAR-3 ovarian
[36] = tested on: OVCAR-4 ovarian
[37] = tested on: OVCAR-5 ovarian
[38] = tested on: OVCAR-8 ovarian
[39] = tested on: PC-3 prostate
[40] = tested on: RPMI-8226 leukemia
[41] = tested on: RXF 393 renal
[42] = tested on: SF-268 CNS
[43] = tested on: SF-295 CNS
[44] = tested on: SF-539 CNS
[45] = tested on: SK-MEL-2 melanoma
[46] = tested on: SK-MEL-28 melanoma
[47] = tested on: SK-MEL-5 melanoma
[48] = tested on: SK-OV-3 ovarian
[49] = tested on: SN12C renal
[50] = tested on: SNB-19 CNS
[51] = tested on: SNB-75 CNS
[52] = tested on: SR leukemia
[53] = tested on: SW-620 colon
[54] = tested on: T-47D breast
[55] = tested on: TK-10 renal
[56] = tested on: U251 CNS
[57] = tested on: UACC-257 melanoma
[58] = tested on: UACC-62 melanoma
[59] = tested on: UO-31 renal

## COc1ccc(Nc2nc(N)n(Cc3cccc(Br)c3)n2)cc1
[1]
  GI50: 34.3 µM
  TGI: > 100 µM
[2]
  GI50: 15.9 µM
  TGI: 76.4 µM
[3]
  GI50: 36 µM
  TGI: > 100 µM
[4]
  GI50: 29.7 µM
  TGI: > 100 µM
[5]
  GI50: 14.5 µM
  TGI: > 100 µM
[6]
  GI50: 15 µM
  TGI: > 100 µM
[7]
  GI50: 26.3 µM
  TGI: > 100 µM
[8]
  GI50: 48.4 µM
  TGI: > 100 µM
[9]
  GI50: 65.6 µM
  TGI: > 100 µM
[10]
  GI50: 18 µM
  TGI: > 100 µM
[11]
  GI50: 34.3 µM
  TGI: > 100 µM
[12]
  GI50: 27.5 µM
  TGI: > 100 µM
[13]
  GI50: 30.8 µM
  TGI: > 100 µM
[14]
  GI50: 18.4 µM
  TGI: > 100 µM
[15]
  GI50: > 100 µM
  TGI: > 100 µM
[16]
  GI50: 11.4 µM
  TGI: 68.4 µM
[17]
  GI50: 15.4 µM
  TGI: > 100 µM
[18]
  GI50: 64.2 µM
  TGI: > 100 µM
[19]
  GI50: 26.1 µM
  TGI: > 100 µM
[20]
  GI50: 28.7 µM
  TGI: > 100 µM
[21]
  GI50: 26.7 µM
  TGI: > 100 µM
[22]
  GI50: 31.5 µM
  TGI: > 100 µM
[23]
  GI50: 36.8 µM
  TGI: > 100 µM
[24]
  GI50: 27.2 µM
  TGI: > 100 µM
[25]
  GI50: 26 µM
  TGI: > 100 µM
[26]
  GI50: 37.1 µM
  TGI: > 100 µM
[27]
  GI50: 32.8 µM
  TGI: > 100 µM
[28]
  GI50: 19.3 µM
  TGI: 65.5 µM
[29]
  GI50: 26.9 µM
  TGI: > 100 µM
[30]
  GI50: 27.2 µM
  TGI: > 100 µM
[31]
  GI50: 32.7 µM
  TGI: > 100 µM
[32]
  GI50: 36.2 µM
  TGI: > 100 µM
[33]
  GI50: 26.5 µM
  TGI: > 100 µM
[34]
  GI50: 33.3 µM
  TGI: > 100 µM
[35]
  GI50: 35.8 µM
  TGI: > 100 µM
[36]
  GI50: 31.7 µM
  TGI: > 100 µM
[37]
  GI50: 50.3 µM
  TGI: > 100 µM
[38]
  GI50: 42.1 µM
  TGI: > 100 µM
[39]
  GI50: 25.9 µM
  TGI: > 100 µM
[40]
  GI50: 29.5 µM
  TGI: > 100 µM
[41]
  GI50: 14.3 µM
  TGI: 66 µM
[42]
  GI50: 27.2 µM
  TGI: > 100 µM
[43]
  GI50: 28 µM
  TGI: > 100 µM
[44]
  GI50: 29.6 µM
  TGI: > 100 µM
[45]
  GI50: 31.1 µM
  TGI: > 100 µM
[46]
  GI50: 35.7 µM
  TGI: > 100 µM
[47]
  GI50: 19.5 µM
  TGI: 44 µM
[48]
  GI50: 93.2 µM
  TGI: > 100 µM
[49]
  GI50: 33.4 µM
  TGI: > 100 µM
[50]
  GI50: 48.3 µM
  TGI: > 100 µM
[51]
  GI50: 13.9 µM
  TGI: > 100 µM
[52]
  GI50: 91.7 µM
  TGI: > 100 µM
[53]
  GI50: 57.5 µM
  TGI: > 100 µM
[54]
  GI50: 44.5 µM
  TGI: > 100 µM
[55]
  GI50: 61.7 µM
  TGI: > 100 µM
[56]
  GI50: 42.1 µM
  TGI: > 100 µM
[57]
  GI50: 38.3 µM
  TGI: > 100 µM
[58]
  GI50: 32.8 µM
  TGI: > 100 µM
[59]
  GI50: 17 µM
  TGI: > 100 µM

## N#Cc1c(NC(=O)c2ccc(C(F)(F)F)cc2)sc2c1CCC(=O)C2
[1]
  GI50: 2.5 µM
  TGI: > 41.2 µM
[2]
  GI50: 24.6 µM
  TGI: 87.5 µM
[3]
  GI50: 3.52 µM
  TGI: 16.3 µM
[4]
  GI50: 0.39 µM
  TGI: 1.4 µM
[5]
  GI50: 1.07 µM
  TGI: 2.51 µM
[6]
  GI50: 0.572 µM
  TGI: 2.06 µM
[7]
  GI50: 0.345 µM
  TGI: > 33.3 µM
[8]
  GI50: 0.951 µM
  TGI: 2.33 µM
[9]
  GI50: 3.75 µM
  TGI: > 100 µM
[10]
  GI50: 1.32 µM
  TGI: 3.66 µM
[11]
  GI50: 1.43 µM
  TGI: 2.93 µM
[12]
  GI50: 0.359 µM
  TGI: 2.09 µM
[13]
  GI50: 0.362 µM
  TGI: 1.45 µM
[14]
  GI50: 0.436 µM
  TGI: > 33.2 µM
[15]
  GI50: 2.84 µM
  TGI: 11.4 µM
[16]
  GI50: 1.19 µM
  TGI: 3.56 µM
[17]
  GI50: 1.17 µM
  TGI: 5.02 µM
[18]
  GI50: 0.465 µM
  TGI: 2.06 µM
[19]
  GI50: 1.23 µM
  TGI: 2.74 µM
[20]
  GI50: 0.316 µM
[21]
  GI50: 1.28 µM
  TGI: 4.7 µM
[22]
  GI50: 0.35 µM
  TGI: 1.48 µM
[23]
  GI50: 1.01 µM
  TGI: 2.85 µM
[24]
  GI50: 1.15 µM
  TGI: 2.73 µM
[25]
  GI50: 0.553 µM
  TGI: 10.1 µM
[26]
  GI50: 0.701 µM
  TGI: 1.98 µM
[27]
  GI50: 1.4 µM
  TGI: 2.97 µM
[28]
  GI50: 0.557 µM
  TGI: 2.27 µM
[29]
  GI50: 0.419 µM
  TGI: > 30.1 µM
[30]
  GI50: 2.18 µM
  TGI: 7.91 µM
[31]
  GI50: 0.402 µM
  TGI: 2.09 µM
[32]
  GI50: 2.86 µM
  TGI: 11.8 µM
[33]
  GI50: 0.273 µM
  TGI: 0.951 µM
[34]
  GI50: 0.718 µM
  TGI: 2.93 µM
[35]
  GI50: 0.844 µM
  TGI: 3.2 µM
[36]
  GI50: 1.12 µM
  TGI: 2.78 µM
[37]
  GI50: 1.68 µM
  TGI: 3.5 µM
[38]
  GI50: 1.39 µM
  TGI: 5.9 µM
[39]
  GI50: 0.41 µM
  TGI: 2.79 µM
[40]
  GI50: 0.273 µM
  TGI: > 100 µM
[41]
  GI50: 0.271 µM
  TGI: 1.23 µM
[42]
  GI50: 2.16 µM
  TGI: 11.5 µM
[43]
  GI50: 1.29 µM
  TGI: 2.96 µM
[44]
  GI50: 0.3 µM
  TGI: 1.06 µM
[45]
  GI50: 2.07 µM
  TGI: 4.89 µM
[46]
  GI50: 0.82 µM
  TGI: 2.11 µM
[47]
  GI50: 1.35 µM
  TGI: 2.64 µM
[48]
  GI50: 2.43 µM
  TGI: 6.87 µM
[49]
  GI50: 0.539 µM
  TGI: 3.2 µM
[50]
  GI50: 2.2 µM
  TGI: 13.1 µM
[51]
  GI50: 1.91 µM
  TGI: 5.25 µM
[52]
  GI50: 0.522 µM
  TGI: > 100 µM
[53]
  GI50: 0.411 µM
  TGI: 1.82 µM
[54]
  GI50: 0.322 µM
  TGI: 1.38 µM
[55]
  GI50: 1.05 µM
  TGI: 6.85 µM
[56]
  GI50: 0.622 µM
  TGI: 2.47 µM
[57]
  GI50: 2.15 µM
  TGI: > 22.8 µM
[58]
  GI50: 0.691 µM
  TGI: 2 µM
[59]
  GI50: 0.467 µM
  TGI: 1.7 µM
